Reference: patent publication US10822322B2 (OCEANS LTD., priority 2016, dated 2020)

What was measured:
A549 (lung carcinoma) = experiment: CIMA assay (tetrazolium reduction, cell viability), A549; assay type: cell-based, human
Method: (§1) Stock solutions of the extracts were prepared in dimethylsulfoxide (DMSO) at 10 mg/mL and stored in 200 μl aliquots at −20° C. until analysis. This preparation ensured that the DMSO delivered to cells in culture never exceeded 1%.
(§2) Prepared extracts were assessed following chronic exposure conditions in which cells were seeded at 2×10^3 cells/well (96 wells-plate) and incubated with test compounds for 72 h. Each compound was evaluated over a range of concentrations (0, 10, 25, 50 or 100 μg/ml). Cell proliferation was initially assessed using a standard colorimetric indicator of metabolic activity (CIMA) assay. In this assay, tetrazole reduction was evaluated as a measure of metabolic function that evaluates mitochondrial activity to determine the extent of cell proliferation within a culture. This assay is based on the reduction of yellow tetrazolium salt to purple formazan by mitochondrial reductases enzyme in viable cells, resulting in a color changed that confers a change in absorbance. Six human cell lines were selected for primary evaluation: U373 (glioblastoma-astrocytoma), A549 (lung carcinoma), THP-1 (acute monocytic leukemia), MCF7 (mammary gland adenocarcinoma), SKOV3 (ovarian adenocarcinoma), and CCD1079SK (fibroblast, noncancerous but proliferating) (see FIG. 2 and Table 2). Table 3 expresses the IC50 for each extract.
(§3) These sub-fractions were again subjected to the bioassay evaluation presented above. Results are expressed in Table 8 as % viability (means±standard deviation of three replicates), with LD50/IC50 values in Table 9. […] The maximum DMSO concentration was 1% at 100 μg/ml with 5% SDS used as a known toxic inducer.

PC3 = experiment: CIMA assay (tetrazolium reduction, cell viability), PC3; assay type: cell-based
[1] = system: U373 (glioblastoma-astrocytoma); experiment: CIMA assay (tetrazolium reduction, cell viability), U373; assay type: cell-based, human
Method: as §1, §2, §3

[2] = CIMA assay (tetrazolium reduction, cell viability), CCD1079SK; assay type: cell-based, human; conditions: human
Method: as §1, §2, §3

MDA-MB = experiment: CIMA assay (cell viability), MDA-MB; assay type: cell-based
[3] = system: SKOV3 (ovarian adenocarcinoma); experiment: CIMA assay (tetrazolium reduction, cell viability), SKOV3; assay type: cell-based, human
Method: as §1, §2, §3

[4] = system: THP-1 (acute monocytic leukemia); experiment: CIMA assay (tetrazolium reduction, cell viability), THP-1; assay type: cell-based, human
Method: as §1, §2, §3

[5] = system: MCF7 (mammary gland adenocarcinoma); experiment: CIMA assay (tetrazolium reduction, cell viability), MCF7; assay type: cell-based, human
Method: as §1
as §2, with “extract. […]” for “extract.”

[6] = system: CCD1079SK (fibroblast, noncancerous but proliferating); experiment: CIMA assay (tetrazolium reduction, cell viability), CCD1079SK; assay type: cell-based, human
Method: as §1, §2, §3

[7] = Homo sapiens, A549, read-out: average cell viability
[8] = Homo sapiens, PC-3, read-out: average cell viability
[9] = Homo sapiens, U373 MG, read-out: average cell viability
[10] = Homo sapiens, SK-OV-3, read-out: average cell viability
[11] = Homo sapiens, THP-1, read-out: average cell viability

Q: For `CCCCCC(O)C(O)/C=C/C1CCCCCCCC(=O)O1` (stereo not drawn) [compound 31-34-5, 12,13-dihydroxy-10-octadecen-9-olide], which viability at 1 µg/mL (A549 (lung carcinoma); [7]) is on record?
A: Its viability at 1 µg/mL is 95%.

Q: And the viability at 10 µg/mL (A549 (lung carcinoma); [7])?
A: Its viability at 10 µg/mL is 93%.

Q: What about the viability at 50 µg/mL (A549 (lung carcinoma); [7]) of the same compound?
A: Its viability at 50 µg/mL is 92%.

Q: What about the viability at 100 µg/mL (A549 (lung carcinoma); [7]) of the same compound?
A: Its viability at 100 µg/mL is 61%.

Q: And the viability at 1 µg/mL (PC3; [8])?
A: The viability at 1 µg/mL was 100%.

Q: What about the viability at 10 µg/mL (PC3; [8]) of the same compound?
A: The viability at 10 µg/mL was 93%.

Q: And the viability at 50 µg/mL (PC3; [8])?
A: Its viability at 50 µg/mL is 97%.

Q: What about the viability at 100 µg/mL (PC3; [8]) of the same compound?
A: Its viability at 100 µg/mL is 19%.

Q: And the viability at 1 µg/mL [1, 9]?
A: Its viability at 1 µg/mL is 90%.

Q: What about the viability at 10 µg/mL [1, 9] of the same compound?
A: The viability at 10 µg/mL was 85%.

Q: And the viability at 50 µg/mL [1, 9]?
A: Its viability at 50 µg/mL is 68%.

Q: And the viability at 100 µg/mL [1, 9]?
A: The viability at 100 µg/mL was 3%.

Q: And the viability at 72 h, 1 µg/mL [2]?
A: Its viability at 72 h, 1 µg/mL is 91%.

Q: And the viability at 72 h, 10 µg/mL [2]?
A: The viability at 72 h, 10 µg/mL was 84%.

Q: What about the viability at 72 h, 50 µg/mL [2] of the same compound?
A: Its viability at 72 h, 50 µg/mL is 90%.

Q: What about the viability at 72 h, 100 µg/mL [2] of the same compound?
A: Its viability at 72 h, 100 µg/mL is 17%.

Q: What about the “fold change viability (AVG)” value (MDA-MB; 10 ug/mL) of the same compound?
A: Its value is 1.05.

Q: What about the “fold change viability (AVG)” value (MDA-MB; 50 ug/mL) of the same compound?
A: Its value is 0.72.

Q: And the viability at 1 µg/mL (MDA-MB; 1 Ug/mL)?
A: Its viability at 1 µg/mL is 101%.

Q: What about the viability at 10 µg/mL (MDA-MB; 10 Ug/mL) of the same compound?
A: Its viability at 10 µg/mL is 96%.

Q: What about the viability at 50 µg/mL (MDA-MB; 50 Ug/mL) of the same compound?
A: The viability at 50 µg/mL was 66%.

Q: And the viability at 100 µg/mL (MDA-MB; 100 Ug/mL)?
A: The viability at 100 µg/mL was 20%.

Q: What about the viability at 1 µg/mL [3, 10] of the same compound?
A: The viability at 1 µg/mL was 97%.

Q: What about the viability at 10 µg/mL [3, 10] of the same compound?
A: Its viability at 10 µg/mL is 97%.

Q: And the viability at 50 µg/mL [3, 10]?
A: The viability at 50 µg/mL was 94%.

Q: What about the viability at 100 µg/mL [3, 10] of the same compound?
A: Its viability at 100 µg/mL is 85%.

Q: What about the viability at 1 µg/mL [4, 11] of the same compound?
A: Its viability at 1 µg/mL is 96%.

Q: What about the viability at 10 µg/mL [4, 11] of the same compound?
A: The viability at 10 µg/mL was 84%.

Q: What about the viability at 50 µg/mL [4, 11] of the same compound?
A: Its viability at 50 µg/mL is 68%.

Q: And the viability at 100 µg/mL [4, 11]?
A: Its viability at 100 µg/mL is 44%.

Q: What does the source list for `CCCCCCCCCCCCOS(=O)(=O)[O-].[Na+]` [SDS 5%, reference compound]?
A: % viability AVG (A549 (lung carcinoma)): 66.2%; cell viability AVG (A549 (lung carcinoma)): 68.7%; % viability AVG (PC3): 94.4%; cell viability AVG (PC3): 77.3%; % viability AVG [5]: 93.7%; % viability AVG [1]: 78.5%; % viability AVG [6]: 87.9%; % viability AVG [3]: 90.7%; % viability AVG [4]: 39.9%
